Reference: patent US20230017045A1, “PYRIDINE AND PYRIMIDINE CARBOXYLATE HERBICIDES AND METHODS OF USE THEREOF” (Dow AgroSciences LLC, priority 2017, published 2023)
Where two headings read alike, the source gives them in different places.

System: test plant species
Experiment: Post-emergent herbicidal activity test (greenhouse, foliar spray, visual growth reduction)
Format: in vivo
Settings: post-emergence, 336 h, 140 g ai/ha
In short: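 Greenhouse plants at first–second true leaf stage sprayed overhead at 187 L/ha with compound in acetone/water/isopropanol/DMSO/crop oil/X-77 carrier; controls received solvent blank. Injury rated visually after 14 d on a 0–100% scale versus untreated and control plants, converted to growth reduction.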

[1] = ALOMY: blackgrass (Alopecurus myosuroides), 14 days after application, read-out: Visual Growth Reduction (%) 14 Days After Application, ALOMY
[2] = AMARE: redroot pigweed (Amaranthus retroflexus), 14 days after application, read-out: Visual Growth Reduction (%) 14 Days After Application, AMARE
[3] = AVEFA: wild oat (Avena fatua), 14 days after application, read-out: Visual Growth Reduction (%) 14 Days After Application, AVEFA
[4] = CHEAL: lambsquarters (Chenopodium album), 14 days after application, read-out: Visual Growth Reduction (%) 14 Days After Application, CHEAL
[5] = CIRAR: canada thistle (Cirsium arvense), 14 days after application, read-out: Visual Growth Reduction (%) 14 Days After Application, CIRAR
[6] = CYPES: yellow nutsedge (Cyperus esculentus), 14 days after application, read-out: Visual Growth Reduction (%) 14 Days After Application, CYPES
[7] = DIGSA: crabgrass (Digitaria sanguinalis), 14 days after application, read-out: Visual Growth Reduction (%) 14 Days After Application, DIGSA
[8] = ECHCG: barnyardgrass (Echinochloa crus-galli), 14 days after application, read-out: Visual Growth Reduction (%) 14 Days After Application, ECHCG
[9] = IPOHE: ivy-leaf morning glory (Ipomoea hederacea), 14 days after application, read-out: Visual Growth Reduction (%) 14 Days After Application, IPOHE
[10] = KCHSC: kochia (Bassia scoparia), 14 days after application, read-out: Visual Growth Reduction (%) 14 Days After Application, KCHSC
[11] = ORYSA: rice (Oryza sativa), 14 days after application, read-out: Visual Growth Reduction (%) 14 Days After Application, ORYSA
[12] = SETFA: giant foxtail (Setaria faberi), 14 days after application, read-out: Visual Growth Reduction (%) 14 Days After Application, SETFA
[13] = SORVU: grain sorghum (Sorghum vulgare), 14 days after application, read-out: Visual Growth Reduction (%) 14 Days After Application, SORVU
[14] = STEME: common chickweed (Stellaria media), 14 days after application, read-out: Visual Growth Reduction (%) 14 Days After Application, STEME
[15] = TRZAS: wheat, spring (Triticum aestivum), 14 days after application, read-out: Visual Growth Reduction (%) 14 Days After Application, TRZAS
[16] = blackgrass (Alopecurus myosuroides), 14 Days After Application, read-out: Visual Growth Reduction (%) ALOMY
[17] = canada thistle (Cirsium arvense), 14 Days After Application, read-out: Visual Growth Reduction (%) CIRAR
[18] = crabgrass (Digitaria sanguinalis), 14 Days After Application, read-out: Visual Growth Reduction (%) DIGSA
[19] = lambsquarters (Chenopodium album), 14 Days After Application, read-out: Visual Growth Reduction (%) CHEAL
[20] = redroot pigweed (Amaranthus retroflexus), 14 Days After Application, read-out: Visual Growth Reduction (%) AMARE
[21] = wild oat (Avena fatua), 14 Days After Application, read-out: Visual Growth Reduction (%) AVEFA
[22] = yellow nutsedge (Cyperus esculentus), 14 Days After Application, read-out: Visual Growth Reduction (%) CYPES

Row | Structure (SMILES) | pest or weed control at 140 g/ha [1] [%] | pest or weed control at 140 g/ha [2] [%] | pest or weed control at 140 g/ha [3] [%] | pest or weed control at 140 g/ha [4] [%] | pest or weed control at 140 g/ha [5] [%] | pest or weed control at 140 g/ha [6] [%] | pest or weed control at 140 g/ha [7] [%] | pest or weed control at 140 g/ha [8] [%] | pest or weed control at 140 g/ha [9] [%] | pest or weed control at 140 g/ha [10] [%] | pest or weed control at 140 g/ha [11] [%] | pest or weed control at 140 g/ha [12] [%] | pest or weed control at 140 g/ha [13] [%] | pest or weed control at 140 g/ha [14] [%] | pest or weed control at 140 g/ha [15] [%] | pest or weed control at 140 g/ha [16] [%] | pest or weed control at 140 g/ha [17] [%] | pest or weed control at 140 g/ha [18] [%] | pest or weed control at 140 g/ha [19] [%] | pest or weed control at 140 g/ha [20] [%] | further results
1 | COC(=O)c1nc(-c2ccc(C(F)(F)F)cc2Cl)ccc1F [F113, methyl 6-(2-chloro-4-(trifluoromethyl)phenyl)-3-fluoropicolinate] | 0 to 29 | 95 to 100 | 45 to 59 | 95 to 100 | 85 to 94 | 0 to 29 | 85 to 94 | 75 to 84 | 95 to 100 | 60 to 74 | 30 to 44 | 75 to 84 | 85 to 94 | 0 to 29 | 0 to 29 | – | – | – | – | – | –
2 | O=C(OCc1cccc(C(F)(F)F)c1)c1nc(-c2ccc(C(F)(F)F)cc2Cl)ccc1Cl [F117, 3-(Trifluoromethyl) benzyl 3-chloro-6-(2-chloro-4-(trifluoromethyl)phenyl)picolinate] | 45 to 59 | 95 to 100 | 60 to 74 | 95 to 100 | 85 to 94 | 0 to 29 | 95 to 100 | 85 to 94 | 95 to 100 | 95 to 100 | 0 to 29 | 95 to 100 | 95 to 100 | 0 to 29 | 85 to 94 | – | – | – | – | – | –
3 | COC(=O)c1nc(-c2ccc(C(F)(F)F)cc2C(N)=O)ccc1Cl [F146, Methyl 6-(2-carbamoyl-4-(trifluoromethyl)phenyl)-3-chloropicolinate] | 0 to 29 | 0 to 29 | 0 to 29 | 0 to 29 | 0 to 29 | 0 to 29 | 0 to 29 | 0 to 29 | 30 to 44 | 0 to 29 | 0 to 29 | 0 to 29 | 0 to 29 | 0 to 29 | 0 to 29 | – | – | – | – | – | –
4 | COC(=O)c1nc(-c2ccc(C(F)(F)F)cc2OC)ncc1Cl [F313, methyl 5-chloro-2-(2-methoxy-4-(trifluoromethyl)phenyl)pyrimidine-4-carboxylate] | – | – | – | – | – | – | – | 60 to 74 | 95 to 100 | 0 to 29 | 0 to 29 | 60 to 74 | 85 to 94 | 0 to 29 | 0 to 29 | 0 to 29 | 45 to 59 | 75 to 84 | 30 to 44 | 45 to 59 | pest or weed control at 140 g/ha [21]: 0 to 29%; pest or weed control at 140 g/ha [22]: 0 to 29%
5 | O=C(O)c1nc(-c2ccc(C(F)(F)F)cc2Cl)ccc1F [F132, 6-(2-Chloro-4-(trifluoromethyl)phenyl)-3-fluoropicolinic acid] | 0 to 29 | 95 to 100 | 0 to 29 | 95 to 100 | 85 to 94 | 0 to 29 | 75 to 84 | 60 to 74 | 95 to 100 | 75 to 84 | 0 to 29 | 75 to 84 | 85 to 94 | 0 to 29 | 0 to 29 | – | – | – | – | – | –
6 | COC(=O)c1nc(-c2ccc(C(F)(F)F)c(OC)c2)ccc1Cl [F296, Methyl 3-chloro-6-(3-methoxy-4-(trifluoromethyl)phenyl)picolinate] | – | – | – | – | – | – | – | 0 to 29 | 45 to 59 | 0 to 29 | 0 to 29 | 0 to 29 | 0 to 29 | 0 to 29 | 0 to 29 | 0 to 29 | 60 to 74 | 0 to 29 | 0 to 29 | 0 to 29 | pest or weed control at 140 g/ha [21]: 0 to 29%; pest or weed control at 140 g/ha [22]: 0 to 29%
7 | COC(=O)c1nc(-c2ccc(Cl)cc2Cl)ccc1C [F52, Methyl 6-(2,4-dichlorophenyl)-3-methylpicolinate] | 0 to 29 | 0 to 29 | 0 to 29 | 0 to 29 | 0 to 29 | 0 to 29 | 0 to 29 | 0 to 29 | – | 0 to 29 | 0 to 29 | 0 to 29 | 0 to 29 | 0 to 29 | 0 to 29 | – | – | – | – | – | –
8 | COC(=O)c1nc(-c2ccc([S+](C)[O-])cc2)c(F)cc1Cl (centres unmarked) [F263, Methyl 3-chloro-5-fluoro-6-(4-(methylsulfinyl)phenyl)picolinate] | – | – | – | – | – | – | – | 0 to 29 | 0 to 29 | 0 to 29 | 0 to 29 | 0 to 29 | 0 to 29 | 0 to 29 | 0 to 29 | 0 to 29 | 0 to 29 | 0 to 29 | 0 to 29 | 0 to 29 | pest or weed control at 140 g/ha [21]: 0 to 29%; pest or weed control at 140 g/ha [22]: 0 to 29%
9 | COC(=O)c1nc(-c2ccc(C(F)(F)F)cc2Cl)ccc1OC [F2, Methyl 6-(2-chloro-4-4-(trifluoromethyl)phenyl)-3-methoxypicolinate] | 0 to 29 | 60 to 74 | 0 to 29 | 0 to 29 | 0 to 29 | 0 to 29 | 85 to 94 | – | – | – | – | – | – | – | – | – | – | – | – | – | pest or weed control at 140 g/ha (barnyardgrass (Echinochloa crus-galli), 14 Days After Application, read-out: Visual Growth Reduction (%) ECHCG): 60 to 74%; pest or weed control at 140 g/ha (common chickweed (Stellaria media), 14 Days After Application, read-out: Visual Growth Reduction (%) STEME): 0 to 29%; pest or weed control at 140 g/ha (giant foxtail (Setaria faberi), 14 Days After Application, read-out: Visual Growth Reduction (%) SETFA): 30 to 44%; pest or weed control at 140 g/ha (ivy-leaf morning glory (Ipomoea hederacea), 14 Days After Application, read-out: Visual Growth Reduction (%) IPOHE): 85 to 94%; pest or weed control at 140 g/ha (johnsongrass (Sorghum vulgare), 14 Days After Application, read-out: Visual Growth Reduction (%) SORVU): 95 to 100%; pest or weed control at 140 g/ha (kochia (Bassia scoparia), 14 Days After Application, read-out: Visual Growth Reduction (%) KCHSC): 0 to 29%; pest or weed control at 140 g/ha (rice (Oryza sativa), 14 Days After Application, read-out: Visual Growth Reduction (%) ORYSA): 0 to 29%; pest or weed control at 140 g/ha (wheat, spring (Triticum aestivum), 14 Days After Application, read-out: Visual Growth Reduction (%) TRZAS): 45 to 59%
